Data reported in article PMC4884984, “Identification of approved and investigational drugs that inhibit hypoxia-inducible factor-1 signaling” (Oncotarget, 2016).
Read-outs that look alike come from different tables or passages of the source. *1 amine or outer side, *2 acyl side, *3 side chain or, on linkers, in order; H or OH if unused. Where a SMILES comes first, the peptide text is derived from it. Bridges are numbered along the chain shown (N, C = ends). Roman numbers before positions name the chains, in order. [ ]: non-standard residue; d: D form. Actinocin(9to1) = Cc1c2oc3c(C)ccc(C(=O)[*:1])c3nc-2c(C(=O)[*:2])c(N)c1=O; NMeV = CN[C@H](C(=O)O)C(C)C; Sar = CNCC(=O)O

Tests used:
Format in all cases: cell-based, human
HIF-1α–NanoLuc = HIF-1α–NanoLuc reporter gene assay (qHTS primary and confirmatory screens)
[1] = system: hypoxia response element-beta-lactamase (HRE–bla); test: HRE-bla reporter gene assay in ME-180 cells; details: Table S7, confirmatory screen; for IC50: read-out: HRE–bla confirmatory IC50; for Emax: read-out: HRE–bla confirmatory Efficacy
Description: (§1) Cell culture of HRE–bla ME-180 cells (Cat. No. K1644, Life Technologies) and HRE–bla assay were conducted according to a reported protocol [6]. […] The fluorescence signals (460/25 nm and 530/20 nm) of CCF4 and luminescence signals of CellTiter-Glo were acquired on an Envision and a ViewLux plate readers (Perkin Elmer), respectively.

[2] = system: HIF-1α–NanoLuc HCT116 cells; test: Viability (Luc): CellTiter-Glo counter screen in HIF-1α–NanoLuc cells; details: for IC50: 1% O2, 18 h; for Viability (Luc) confirmatory IC50: Table S7, 1% O2, 18 h
HRE–bla ME-180 cells = test: Viability (BLA): CellTiter-Glo counter screen in HRE–bla cells; details: for IC50 / Emax: Table S7, confirmatory screen; for IC50: 1% O2, 18 h; for Viability (BLA) confirmatory IC50: Table S7, 1% O2, 18 h; for Emax: read-out: Viability (BLA) confirmatory Efficacy
Description: as §1

[3] = Table S2, validation, read-out: Pathway inhibitors (validation) HIF-1α–NanoLuc Activity IC50
[4] = Homo sapiens, Table S7, confirmatory screen, read-out: HIF-1α–NanoLuc confirmatory Efficacy
[5] = Homo sapiens, Table S7, confirmatory screen, read-out: HIF-1α–NanoLuc confirmatory IC50
[6] = Homo sapiens, Table S7, primary screen, read-out: HIF-1α–NanoLuc primary Efficacy
[7] = Homo sapiens, Table S7, primary screen, read-out: HIF-1α–NanoLuc primary IC50
[8] = Homo sapiens, HCT-116, Table S7, confirmatory screen
[9] = Homo sapiens, Table S1, primary screen, read-out: Efficacy (primary screen, HIF-1α–NanoLuc assay)
[10] = Homo sapiens, Table S2, validation, read-out: Pathway inhibitors (validation) HIF-1α–NanoLuc Activity Efficacy
[11] = Homo sapiens, Table S2, validation, read-out: Pathway inhibitors (validation) HIF-1α–NanoLuc Activity IC50

## N#C/C(=C\c1ccc(-c2cc(Cl)ccc2Cl)o1)C(=O)Nc1cccc2ncccc12 [AGK2]
HIF-1α–NanoLuc; Table S2, validation
  Pathway inhibitors (validation) HIF-1α–NanoLuc Activity Efficacy: 107± 9%
HIF-1α–NanoLuc; [3]
  IC50: 19.5 ± 2.49 µM
HIF-1α–NanoLuc; Table S7, confirmatory screen
  HIF-1α–NanoLuc confirmatory Efficacy: 107 ± 9%
[1]
  HRE–bla confirmatory Efficacy: 63 ± 14%
  IC50: 9.47 ± 3.45 µM
[2]; Table S7, confirmatory screen
  IC50: 21.2 ± 3.96 µM
HRE–bla ME-180 cells
  IC50: 10.1 ± 2.97 µM

## CCOc1ccc(Cc2nccc3cc(OCC)c(OCC)cc23)cc1OCC [Ethaverine]
HIF-1α–NanoLuc; [4]
  Emax: 96 ± 2%
HIF-1α–NanoLuc; [5]
  IC50: 9.39 ± 1.08 µM
HIF-1α–NanoLuc; [6]
  Emax: 67%
HIF-1α–NanoLuc; [7]
  IC50: 6.68 µM
[1]
  HRE–bla confirmatory IC50: Inactive
[2]
  Viability (Luc) confirmatory IC50: Inactive
HRE–bla ME-180 cells
  Viability (BLA) confirmatory IC50: Inactive

## CO[C@H]1C[C@@H]2CC[C@@H](C)[C@@](O)(O2)C(=O)C(=O)N2CCCC[C@H]2C(=O)O[C@H]([C@H](C)C[C@@H]2CC[C@@H](OC(=O)C(C)(CO)CO)[C@H](OC)C2)CC(=O)[C@H](C)/C=C(\C)[C@@H](O)[C@@H](OC)C(=O)[C@H](C)C[C@H](C)/C=C/C=C/C=C/1C [Temsirolimus]
HIF-1α–NanoLuc; [4]
  Emax: 92 ± 8%
HIF-1α–NanoLuc; [5]
  IC50: 34.5 ± 2.34 µM
[1]; Homo sapiens, ME-180
  Emax: 86 ± 7%
  IC50: 15.9 ± 6.91 µM
[2]
  Viability (Luc) confirmatory IC50: Inactive
HRE–bla ME-180 cells; Homo sapiens, ME-180
  IC50: 27.7 ± 1.87 µM
  Emax: 116 ± 11%

## COc1ccccc1N1CCN(CC(O)COc2cccc3ccccc23)CC1 (stereo not drawn) [Naftopidil]
[1]
  HRE–bla confirmatory IC50: Inactive
HRE–bla ME-180 cells
  Viability (BLA) confirmatory IC50: Inactive

## CCCCC(CC)CNC(=N)NC(=N)NCCCCCCNC(=N)NC(=N)NCC(CC)CCCC (stereo not drawn) [Alexidine]
HIF-1α–NanoLuc; [4]
  Emax: 107 ± 2%
HIF-1α–NanoLuc; [5]
  IC50: 9.35 µM
HIF-1α–NanoLuc; [6]
  Emax: 126%
HIF-1α–NanoLuc; [7]
  IC50: 10.6 µM
[1]; Homo sapiens, ME-180
  Emax: 87 ± 18%
  IC50: 8.78 ± 1.12 µM
[2]; [8]
  IC50: 18.9 ± 3.53 µM
HRE–bla ME-180 cells; Homo sapiens, ME-180
  IC50: 8.83 ± 1.59 µM

## O=C1NCN(c2ccccc2)C12CCN(CCCOc1ccc(F)cc1)CC2 [AMI-193]
HIF-1α–NanoLuc; [4]
  Emax: 48 ± 6%
HIF-1α–NanoLuc; [5]
  IC50: 12.2 ± 0.83 µM
HIF-1α–NanoLuc; [6]
  Emax: 57%
HIF-1α–NanoLuc; [7]
  IC50: 3.35 µM
[1]
  HRE–bla confirmatory IC50: Inactive
[2]
  Viability (Luc) confirmatory IC50: Inactive
HRE–bla ME-180 cells; Homo sapiens, ME-180
  IC50: 25.8 ± 4.4 µM

## Cc1cc(C)c(/C=C2\C(=O)Nc3ccccc32)[nH]1 [SU-5416]
[1]; Homo sapiens, ME-180
  Emax: 111 ± 12%
  IC50: 12.8 ± 0.84 µM
HRE–bla ME-180 cells
  Viability (BLA) confirmatory IC50: Inactive

## C#Cc1cccc(Nc2ncnc3cc(OCCOC)c(OCCOC)cc23)c1 [Erlotinib]
HIF-1α–NanoLuc; Homo sapiens, Table S1, primary screen, hypoxia 1% O2, 18 h, read-out: IC50 (primary screen, HIF-1α–NanoLuc assay)
  IC50: 2.66 µM
HIF-1α–NanoLuc; [9]
  Emax: 33%
HIF-1α–NanoLuc; Homo sapiens, Table S2, primary screen, read-out: Pathway inhibitors (primary screen) HIF-1α–NanoLuc Activity Efficacy
  Emax: 33%
HIF-1α–NanoLuc; [10]
  Emax: 35 ± 6%
HIF-1α–NanoLuc; [11]
  IC50: 6.64 ± 2.42 µM
HIF-1α–NanoLuc; [4]
  Emax: 35 ± 6%
HIF-1α–NanoLuc; [6]
  Emax: 33%
[1]; Homo sapiens, ME-180
  Emax: 59 ± 15%
  IC50: 7.95 ± 3.47 µM
[2]
  Viability (Luc) confirmatory IC50: Inactive
HRE–bla ME-180 cells
  Viability (BLA) confirmatory IC50: Inactive

## CC(/C=C/C(=O)NO)=C\[C@@H](C)C(=O)c1ccc(N(C)C)cc1 [Trichostatin A]
HIF-1α–NanoLuc; Table S2, validation
  Pathway inhibitors (validation) HIF-1α–NanoLuc Activity Efficacy: 55 ± 4%
HIF-1α–NanoLuc; [3]
  IC50: 0.67 ± 0.26 µM
HIF-1α–NanoLuc; Table S7, confirmatory screen
  HIF-1α–NanoLuc confirmatory Efficacy: 55 ± 4%
[1]
  HRE–bla confirmatory Efficacy: 92 ± 11%
  IC50: 12.2 ± 3.9 µM
[2]
  Viability (Luc) confirmatory IC50: Inactive
HRE–bla ME-180 cells
  IC50: 9.68 ± 3.79 µM
  Emax: 43 ± 13%

## COc1cc2ncnc(Nc3ccc(F)c(Cl)c3)c2cc1OCCCN1CCOCC1 [Gefitinib]
HIF-1α–NanoLuc; [9]
  Emax: 86%
HIF-1α–NanoLuc; [4]
  Emax: 31 ± 3%
HIF-1α–NanoLuc; [6]
  Emax: 86%
[1]; Homo sapiens, ME-180
  Emax: 45 ± 14%
[2]
  Viability (Luc) confirmatory IC50: Inactive
HRE–bla ME-180 cells
  Viability (BLA) confirmatory IC50: Inactive

## CS(=O)(=O)CCNCc1ccc(-c2ccc3ncnc(Nc4ccc(OCc5cccc(F)c5)c(Cl)c4)c3c2)o1 [Lapatinib]
HIF-1α–NanoLuc; [10]
  Emax: 50 ± 6%
HIF-1α–NanoLuc; [11]
  IC50: 20.2 ± 1.31 µM
HIF-1α–NanoLuc; [4]
  Emax: 50 ± 6%
HIF-1α–NanoLuc; [6]
  Emax: 56%
HIF-1α–NanoLuc; [7]
  IC50: 33.5 µM
[1]; Homo sapiens, ME-180
  Emax: 78 ± 6%
  IC50: 11.4 ± 0.75 µM
[2]
  Viability (Luc) confirmatory IC50: Inactive
HRE–bla ME-180 cells; Homo sapiens, ME-180
  IC50: 20.4 ± 1.33 µM

## CC(=O)Oc1ccc(C(c2ccc(OC(C)=O)cc2)c2ccccn2)cc1 [Bisacodyl]
HIF-1α–NanoLuc; [4]
  Emax: 26 ± 6%
HIF-1α–NanoLuc; [5]
  IC50: 3.91 ± 0.7 µM
HIF-1α–NanoLuc; [6]
  Emax: 110%
HIF-1α–NanoLuc; [7]
  IC50: 0.84 µM
[1]; Homo sapiens, ME-180
  Emax: 93 ± 4%
  IC50: 0.84 ± 0.1 µM
[2]
  Viability (Luc) confirmatory IC50: Inactive
HRE–bla ME-180 cells; Homo sapiens, ME-180
  IC50: 0.69 ± 0.05 µM

## Nc1nc2nc[nH]c2c(=S)[nH]1 [6-Thioguanine]
HIF-1α–NanoLuc; [4]
  Emax: 81 ± 7%
HIF-1α–NanoLuc; [5]
  IC50: 3.26 ± 0.81 µM
HIF-1α–NanoLuc; [6]
  Emax: 81%
HIF-1α–NanoLuc; [7]
  IC50: 2.11 µM
[1]; Homo sapiens, ME-180
  Emax: 88 ± 1%
  IC50: 7.83 ± 1 µM
[2]; [8]
  IC50: 2.3 ± 0.87 µM
[2]; Homo sapiens, HCT-116, Table S7, confirmatory screen, read-out: Viability (Luc) confirmatory Efficacy
  Emax: 57 ± 2%
HRE–bla ME-180 cells
  Viability (BLA) confirmatory IC50: Inactive

## Cc1c2oc3c(C)ccc(C(=O)N[C@@H]4C(=O)N[C@H](C(C)C)C(=O)N5CCC[C@H]5C(=O)N(C)CC(=O)N(C)[C@@H](C(C)C)C(=O)O[C@@H]4C)c3nc-2c(C(=O)N[C@@H]2C(=O)N[C@H](C(C)C)C(=O)N3CCC[C@H]3C(=O)N(C)CC(=O)N(C)[C@@H](C(C)C)C(=O)O[C@@H]2C)c(N)c1=O [Actinomycin D] (I: T[dV]P[Sar][NMeV] / II: T[dV]P[Sar][NMeV]; ester I:1-I:C, II:1-II:C; linker I:N-II:N via Actinocin(9to1))
HIF-1α–NanoLuc
  Effect on HIF-1α–NanoLuc level / luciferase activity, in words: caused reduced NanoLuc activity
HIF-1α–NanoLuc; Homo sapiens, 18 h, read-out: IC50 (primary screen, HIF-1α–NanoLuc assay)
  IC50: 0.04 µM
HIF-1α–NanoLuc; Homo sapiens, read-out: Efficacy (primary screen, HIF-1α–NanoLuc assay)
  Emax: 99%
HIF-1α–NanoLuc; Homo sapiens, read-out: HIF-1α–NanoLuc confirmatory Efficacy
  Emax: 87 ± 4%
HIF-1α–NanoLuc; Homo sapiens, read-out: HIF-1α–NanoLuc confirmatory IC50
  IC50: 0.03 ± 0.01 µM
HIF-1α–NanoLuc; Homo sapiens, read-out: HIF-1α–NanoLuc primary Efficacy
  Emax: 99%
[1]; Homo sapiens, ME-180
  Emax: 78 ± 5%
  IC50: 0.02 µM
[2]
  Viability (Luc) confirmatory IC50: Inactive
HRE–bla ME-180 cells; Homo sapiens, ME-180
  IC50: 1.52 ± 2.33 µM
